#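 Protocol summary: plate cells (96-well), add compound at 5 concentrations, incubate 48 h, interpolate endpoints linearly. At the GI50, growth is halved.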 Calls of active or inactive are those of the source. Rule as the data show it: active = GI50 up to about 1.1 µM and inactive = higher.
# Legend:
# Assay in all cases: DTP human tumour cell line panel, 48 h
# ACHN = system: ACHN
# MDA-N = system: MDA-N
# IGROV-1 = system: IGROV-1
# T47D = system: T47D
# M14 = system: M14
# PC-3 = system: PC-3
# SK-OV-3 = system: SK-OV-3
# NCI/ADR-RES = system: NCI/ADR-RES
# SF-539 = system: SF-539
# SK-MEL-2 = system: SK-MEL-2
# NCI-H522 = system: NCI-H522
# HOP-92 = system: HOP-92
# SF-268 = system: SF-268
# SK-MEL-28 = system: SK-MEL-28
# K562 = system: K562
# MOLT-4 = system: MOLT-4
# DU-145 = system: DU-145
# CCRF-CEM = system: CCRF-CEM
# KM12 = system: KM12
# SR = system: SR
# 786-0 = system: 786-0
# HCT-116 = system: HCT-116
# BT-549 = system: BT-549
# U-251 = system: U-251
# RXF 393 = system: RXF 393
# A549 = system: A549
# LOX IMVI = system: LOX IMVI
# MDA-MB-231 = system: MDA-MB-231
# OVCAR-8 = system: OVCAR-8
# MDA-MB-435 = system: MDA-MB-435
# UO-31 = system: UO-31
# HL-60 = system: HL-60
# A498 = system: A498
# TK-10 = system: TK-10
# OVCAR-3 = system: OVCAR-3
# NCI-H226 = system: NCI-H226
# CAKI-1 = system: CAKI-1
# SNB-75 = system: SNB-75
# NCI-H460 = system: NCI-H460
# SK-MEL-5 = system: SK-MEL-5
# SNB-19 = system: SNB-19
# HCT-15 = system: HCT-15
# HCC 2998 = system: HCC 2998
# RPMI-8226 = system: RPMI-8226
# Malme-3M = system: Malme-3M
# SF-295 = system: SF-295
# HT-29 = system: HT-29
# NCI-H23 = system: NCI-H23
# SW-620 = system: SW-620
# COLO 205 = system: COLO 205
# SN12C = system: SN12C
# Hs-578T = system: Hs-578T
# OVCAR-4 = system: OVCAR-4
# HOP-62 = system: HOP-62
# UACC-257 = system: UACC-257
# MCF7 = system: MCF7
# EKVX = system: EKVX
# OVCAR-5 = system: OVCAR-5
# UACC-62 = system: UACC-62
smiles,measurement,setting,value
O=C(/C=C(O)/C(=C/C(=O)c1ccccc1)NN=C(c1ccccc1)c1ccccc1)c1ccccc1,GI50,ACHN,38.3 µM (inactive)
same,GI50,MDA-N,31.8 µM (inactive)
same,GI50,IGROV-1,36.9 µM (inactive)
same,GI50,T47D,32.4 µM (inactive)
same,GI50,M14,24.9 µM (inactive)
same,GI50,PC-3,35.9 µM (inactive)
same,GI50,SK-OV-3,25.8 µM (inactive)
same,GI50,NCI/ADR-RES,18.9 µM (inactive)
same,GI50,SF-539,37.5 µM (inactive)
same,GI50,SK-MEL-2,25.8 µM (inactive)
same,GI50,NCI-H522,15.7 µM (inactive)
same,GI50,HOP-92,60.4 µM (inactive)
same,GI50,SF-268,30.3 µM (inactive)
same,GI50,SK-MEL-28,51.6 µM (inactive)
same,GI50,K562,15.2 µM (inactive)
same,GI50,MOLT-4,14.1 µM (inactive)
same,GI50,DU-145,45.2 µM (inactive)
same,GI50,CCRF-CEM,3.3 µM (inactive)
same,GI50,KM12,42.3 µM (inactive)
same,GI50,SR,9.08 µM (inactive)
same,GI50,786-0,31.1 µM (inactive)
same,GI50,HCT-116,28.1 µM (inactive)
same,GI50,BT-549,31.2 µM (inactive)
same,GI50,U-251,26.7 µM (inactive)
same,GI50,RXF 393,41 µM (inactive)
same,GI50,A549,36.1 µM (inactive)
same,GI50,LOX IMVI,38.3 µM (inactive)
same,GI50,MDA-MB-231,49.7 µM (inactive)
same,GI50,OVCAR-8,44.7 µM (inactive)
same,GI50,MDA-MB-435,31 µM (inactive)
same,GI50,UO-31,47.6 µM (inactive)
same,GI50,HL-60,1.57 µM (inactive)
same,GI50,A498,32.4 µM (inactive)
same,GI50,TK-10,28.4 µM (inactive)
same,GI50,OVCAR-3,18.3 µM (inactive)
same,GI50,NCI-H226,24.9 µM (inactive)
same,GI50,CAKI-1,39.7 µM (inactive)
same,GI50,SNB-75,49.7 µM (inactive)
same,GI50,NCI-H460,24 µM (inactive)
same,GI50,SK-MEL-5,18.7 µM (inactive)
same,GI50,SNB-19,41.3 µM (inactive)
same,GI50,HCT-15,23.5 µM
same,GI50,HCC 2998,20.6 µM (inactive)
same,GI50,RPMI-8226,24.4 µM (inactive)
same,GI50,Malme-3M,25.2 µM (inactive)
same,GI50,SF-295,23.5 µM (inactive)
same,GI50,HT-29,85.7 µM (inactive)
same,GI50,NCI-H23,24 µM (inactive)
same,GI50,SW-620,33.2 µM (inactive)
same,GI50,COLO 205,40.6 µM (inactive)
same,GI50,SN12C,30.2 µM (inactive)
same,GI50,Hs-578T,29.2 µM (inactive)
same,GI50,OVCAR-4,38.4 µM (inactive)
same,GI50,HOP-62,21 µM (inactive)
same,GI50,UACC-257,26.9 µM (inactive)
same,GI50,MCF7,34.4 µM (inactive)
same,GI50,EKVX,> 100 µM (inactive)
same,GI50,OVCAR-5,> 100 µM (inactive)
same,GI50,UACC-62,17.1 µM (inactive)
O=C(OCC1OC(n2nc(Cn3nnc(-c4cccnc4)n3)n(-c3cccc4ccccc34)c2=S)C(OC(=O)c2ccccc2)C1OC(=O)c1ccccc1)c1ccccc1 (stereo not drawn),GI50,ACHN,> 100 µM (inactive)
same,GI50,MDA-N,> 100 µM (inactive)
same,GI50,IGROV-1,> 100 µM (inactive)
same,GI50,T47D,> 100 µM (inactive)
same,GI50,M14,35.3 µM (inactive)
same,GI50,PC-3,> 100 µM (inactive)
same,GI50,SK-OV-3,> 100 µM (inactive)
same,GI50,NCI/ADR-RES,> 100 µM (inactive)
same,GI50,SF-539,> 100 µM (inactive)
same,GI50,SK-MEL-2,> 100 µM (inactive)
same,GI50,NCI-H522,> 100 µM (inactive)
same,GI50,HOP-92,> 100 µM (inactive)
same,GI50,SF-268,> 100 µM (inactive)
same,GI50,SK-MEL-28,> 100 µM (inactive)
same,GI50,K562,> 100 µM (inactive)
same,GI50,MOLT-4,> 100 µM (inactive)
same,GI50,DU-145,> 100 µM (inactive)
same,GI50,CCRF-CEM,> 100 µM (inactive)
same,GI50,KM12,> 100 µM (inactive)
same,GI50,SR,> 100 µM (inactive)
same,GI50,786-0,> 100 µM (inactive)
same,GI50,HCT-116,> 100 µM (inactive)
same,GI50,BT-549,> 100 µM (inactive)
same,GI50,U-251,> 100 µM (inactive)
same,GI50,RXF 393,> 100 µM (inactive)
same,GI50,A549,> 100 µM (inactive)
same,GI50,LOX IMVI,> 100 µM (inactive)
same,GI50,MDA-MB-231,53.8 µM (inactive)
same,GI50,OVCAR-8,> 100 µM (inactive)
same,GI50,MDA-MB-435,> 100 µM (inactive)
same,GI50,UO-31,> 100 µM (inactive)
same,GI50,HL-60,> 100 µM (inactive)
same,GI50,A498,> 100 µM (inactive)
same,GI50,TK-10,> 100 µM (inactive)
same,GI50,OVCAR-3,> 100 µM (inactive)
same,GI50,NCI-H226,> 100 µM (inactive)
same,GI50,CAKI-1,> 100 µM (inactive)
same,GI50,SNB-75,2.55 µM (inactive)
same,GI50,NCI-H460,> 100 µM (inactive)
same,GI50,SK-MEL-5,> 100 µM (inactive)
same,GI50,SNB-19,> 100 µM (inactive)
same,GI50,HCT-15,> 100 µM
same,GI50,HCC 2998,> 100 µM (inactive)
same,GI50,RPMI-8226,> 100 µM (inactive)
same,GI50,Malme-3M,> 100 µM (inactive)
same,GI50,SF-295,> 100 µM (inactive)
same,GI50,HT-29,> 100 µM (inactive)
same,GI50,NCI-H23,> 100 µM (inactive)
same,GI50,SW-620,> 100 µM (inactive)
same,GI50,COLO 205,> 100 µM (inactive)
same,GI50,SN12C,> 100 µM (inactive)
same,GI50,Hs-578T,> 100 µM (inactive)
same,GI50,OVCAR-4,> 100 µM (inactive)
same,GI50,HOP-62,> 100 µM (inactive)
same,GI50,UACC-257,> 100 µM (inactive)
same,GI50,MCF7,> 100 µM (inactive)
same,GI50,EKVX,> 100 µM (inactive)
same,GI50,OVCAR-5,65.9 µM (inactive)
same,GI50,UACC-62,> 100 µM (inactive)

# — ChEMBL document CHEMBL1201862, “PubChem BioAssay data set” (2004)
